Source: US11208412B2 (DAEGU-GYEONGBUK MEDICAL INNOVATION FOUNDATION, priority 2017, dated 2021)

What was measured:
Assay in all cases: Kinase selectivity, DiscoverX scanMAX Kinase assay panel (% control)
Format in all cases: binding
[1] = molecular target: T1, kinases of the scanMAX Kinase assay panel (Homo sapiens, UniProt Q05655); conditions: PRKCD; 1 uM
T1 construct: purchased DiscoverX Co. (contract measurement) scanMAX Kinase assay panel
Procedure, shortened: (§1)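 Percent of control computed as (compound − positive control)/(negative control − positive control) × 100, DMSO defining 100% and positive control 0%. Each panel kinase exposed to 1 uM compound; values under 35% taken to mean the compound acts on that kinase.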

[2] = molecular target: T2, kinases of the scanMAX Kinase assay panel (Homo sapiens, UniProt Q8WXR4); conditions: MYO3B; 1 uM
T2 construct: purchased DiscoverX Co. (contract measurement) scanMAX Kinase assay panel
T2 sequence (Q8WXR4 1-1341): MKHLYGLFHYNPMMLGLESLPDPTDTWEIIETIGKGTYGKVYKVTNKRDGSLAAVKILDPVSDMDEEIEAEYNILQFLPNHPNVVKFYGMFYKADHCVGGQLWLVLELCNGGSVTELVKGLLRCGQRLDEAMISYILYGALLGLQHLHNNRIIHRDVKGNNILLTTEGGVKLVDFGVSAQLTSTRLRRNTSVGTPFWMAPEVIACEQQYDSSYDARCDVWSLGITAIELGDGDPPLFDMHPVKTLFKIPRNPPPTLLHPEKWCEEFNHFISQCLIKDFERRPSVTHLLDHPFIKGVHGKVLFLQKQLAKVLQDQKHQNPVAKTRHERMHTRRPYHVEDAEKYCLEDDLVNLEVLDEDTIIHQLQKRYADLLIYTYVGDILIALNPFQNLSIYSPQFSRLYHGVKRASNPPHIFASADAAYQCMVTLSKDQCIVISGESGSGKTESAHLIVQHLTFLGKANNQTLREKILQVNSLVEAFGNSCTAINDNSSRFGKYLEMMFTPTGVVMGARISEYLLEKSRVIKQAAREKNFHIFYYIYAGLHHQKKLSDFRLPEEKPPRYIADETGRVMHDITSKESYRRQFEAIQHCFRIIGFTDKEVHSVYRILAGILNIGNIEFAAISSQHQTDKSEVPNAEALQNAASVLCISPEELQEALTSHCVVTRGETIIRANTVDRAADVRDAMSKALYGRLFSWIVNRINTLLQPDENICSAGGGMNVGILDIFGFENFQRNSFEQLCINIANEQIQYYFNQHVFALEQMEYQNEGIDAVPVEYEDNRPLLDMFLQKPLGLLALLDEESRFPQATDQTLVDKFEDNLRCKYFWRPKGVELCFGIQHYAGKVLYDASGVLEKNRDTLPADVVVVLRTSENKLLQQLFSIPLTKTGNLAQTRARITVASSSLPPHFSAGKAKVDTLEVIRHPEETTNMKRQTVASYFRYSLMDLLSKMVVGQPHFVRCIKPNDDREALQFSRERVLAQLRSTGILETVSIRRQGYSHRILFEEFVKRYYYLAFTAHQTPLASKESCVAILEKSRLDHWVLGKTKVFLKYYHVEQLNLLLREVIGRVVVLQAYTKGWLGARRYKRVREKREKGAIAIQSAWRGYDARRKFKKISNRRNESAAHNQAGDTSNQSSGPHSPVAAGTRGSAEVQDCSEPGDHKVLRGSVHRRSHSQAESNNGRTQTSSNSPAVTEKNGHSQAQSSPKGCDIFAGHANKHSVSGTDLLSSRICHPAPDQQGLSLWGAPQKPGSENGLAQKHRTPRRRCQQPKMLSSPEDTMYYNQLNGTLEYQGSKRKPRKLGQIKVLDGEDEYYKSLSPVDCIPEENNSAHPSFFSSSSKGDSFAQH
Procedure, shortened: as §1

[3] = molecular target: T3, kinases of the scanMAX Kinase assay panel (Homo sapiens, UniProt P27361); conditions: ERK1; 1 uM
T3 construct: purchased DiscoverX Co. (contract measurement) scanMAX Kinase assay panel
T3 sequence (P27361 whole entry): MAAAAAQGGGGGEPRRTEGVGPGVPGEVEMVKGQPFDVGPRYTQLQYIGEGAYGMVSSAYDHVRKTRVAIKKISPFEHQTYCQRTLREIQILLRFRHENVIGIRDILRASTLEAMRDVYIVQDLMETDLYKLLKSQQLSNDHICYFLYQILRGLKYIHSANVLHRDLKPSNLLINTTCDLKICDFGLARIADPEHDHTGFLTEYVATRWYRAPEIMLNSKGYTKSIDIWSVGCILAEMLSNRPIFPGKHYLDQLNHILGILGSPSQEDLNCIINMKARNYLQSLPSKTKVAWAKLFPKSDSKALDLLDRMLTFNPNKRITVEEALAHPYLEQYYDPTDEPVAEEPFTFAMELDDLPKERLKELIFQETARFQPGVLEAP
Procedure, shortened: as §1

[4] = molecular target: T4, kinases of the scanMAX Kinase assay panel (Homo sapiens, UniProt P54753); conditions: EPHB3; 1 uM
T4 construct: purchased DiscoverX Co. (contract measurement) scanMAX Kinase assay panel
T4 sequence (P54753 34-998): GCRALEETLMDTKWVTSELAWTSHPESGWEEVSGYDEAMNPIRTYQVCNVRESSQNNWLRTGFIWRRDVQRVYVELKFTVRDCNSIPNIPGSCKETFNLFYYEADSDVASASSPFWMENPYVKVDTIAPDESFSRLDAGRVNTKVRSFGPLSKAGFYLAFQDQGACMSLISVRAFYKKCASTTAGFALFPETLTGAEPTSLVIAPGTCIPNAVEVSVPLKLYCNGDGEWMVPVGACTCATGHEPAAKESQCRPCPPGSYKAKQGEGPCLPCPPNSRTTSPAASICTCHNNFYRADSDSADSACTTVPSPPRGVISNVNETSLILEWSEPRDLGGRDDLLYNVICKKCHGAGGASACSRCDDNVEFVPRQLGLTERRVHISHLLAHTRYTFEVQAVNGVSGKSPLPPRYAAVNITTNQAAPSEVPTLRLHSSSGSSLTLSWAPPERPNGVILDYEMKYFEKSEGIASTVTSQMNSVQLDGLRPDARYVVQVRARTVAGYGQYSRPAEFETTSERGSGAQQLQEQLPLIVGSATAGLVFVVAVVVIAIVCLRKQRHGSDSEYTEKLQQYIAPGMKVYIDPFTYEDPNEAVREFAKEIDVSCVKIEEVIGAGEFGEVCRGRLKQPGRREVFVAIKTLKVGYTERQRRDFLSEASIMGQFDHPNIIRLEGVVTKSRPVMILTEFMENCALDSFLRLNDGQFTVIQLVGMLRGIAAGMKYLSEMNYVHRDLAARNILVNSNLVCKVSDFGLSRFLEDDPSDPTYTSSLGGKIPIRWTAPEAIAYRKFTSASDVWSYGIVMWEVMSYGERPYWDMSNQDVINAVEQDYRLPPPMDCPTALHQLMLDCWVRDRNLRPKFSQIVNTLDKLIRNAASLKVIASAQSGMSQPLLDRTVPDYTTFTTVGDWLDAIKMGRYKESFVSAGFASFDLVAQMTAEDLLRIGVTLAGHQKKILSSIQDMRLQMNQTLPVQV
Procedure, shortened: as §1

T1 sequence (Q05655 whole entry): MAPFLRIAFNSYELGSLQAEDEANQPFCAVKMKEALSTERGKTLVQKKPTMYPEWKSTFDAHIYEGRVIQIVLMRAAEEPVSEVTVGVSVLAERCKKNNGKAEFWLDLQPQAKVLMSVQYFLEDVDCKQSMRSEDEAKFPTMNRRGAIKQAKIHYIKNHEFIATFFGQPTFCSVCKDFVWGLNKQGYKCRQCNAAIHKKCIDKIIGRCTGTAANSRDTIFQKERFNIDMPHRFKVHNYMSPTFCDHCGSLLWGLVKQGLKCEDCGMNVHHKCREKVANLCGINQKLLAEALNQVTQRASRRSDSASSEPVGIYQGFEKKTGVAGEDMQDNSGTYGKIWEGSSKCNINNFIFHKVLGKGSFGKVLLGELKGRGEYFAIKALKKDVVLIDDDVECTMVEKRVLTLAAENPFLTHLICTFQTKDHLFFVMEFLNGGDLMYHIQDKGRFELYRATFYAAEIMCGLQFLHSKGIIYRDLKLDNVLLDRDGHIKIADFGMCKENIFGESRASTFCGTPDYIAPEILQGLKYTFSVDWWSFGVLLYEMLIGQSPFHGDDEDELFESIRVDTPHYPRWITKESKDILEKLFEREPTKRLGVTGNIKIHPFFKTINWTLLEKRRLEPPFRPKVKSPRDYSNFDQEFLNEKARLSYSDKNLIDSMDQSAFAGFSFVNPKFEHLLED

Row | SMILES | remaining binding at 1 µM [1] | remaining binding at 1 µM [2] | remaining binding at 1 µM [3] | remaining binding at 1 µM [4]
1 | CC1(Nc2nc(Nc3cnn([C@H]4CCN(C5COC5)C[C@@H]4F)c3Cl)nc3[nH]cc(C#N)c23)CC1 [Example 52, 2-((5-chloro-1-((3S,4S)-3-fluoro-1-(oxetane-3-yl)piperidine-4-yl)-1H-pyrazole-4-yl)amino)((1-methylcyclopropyl)amino)-7H-pyrrolo[2,3-d]pyrimidine-5-carbonitrile] | 81% | 10% | 42% | 95%
2 | CNc1nc(Nc2ccc(C(=O)N3CCOCC3)cc2OC)nc2[nH]cc(C#N)c12 [Example 1, 2-((2-methoxy-4-(morpholine-4-carbonyl)phenyl)amino)-4-(methylamino)-7H-pyrrolo[2,3-d]pyrimidine-5-carbonitrile] | 100% | 84% | 88% | 93%
3 | CCNc1nc(Nc2ccc(C(=O)N3CCC(N4CCOCC4)CC3)cc2OC)nc2[nH]cc(C(F)(F)F)c12 [Example 104, (4-((4-(ethylamino)-5-(trifluoromethyl)-7H-pyrrolo[2,3-d]pyrimidine-2-yl)amino)-3-methoxyphenyl)(4-morpholinopiperidine-1-yl)methanone] | 100% | 19% | 100% | 100%
